Results reported in patent US20240116985A1, “STAPLED PEPTIDES AND METHODS THEREOF” (priority 2020, published 2024).
Read-outs that look alike come from different tables or passages of the source.

Key:
[1] = molecular target: T1, beta-catenin/TCF4 engagement (Homo sapiens, UniProt P35222); test: Nano-BRET target engagement assay (B-cat-Halo & TCF4-Luc in HEK293 cells); assay type: cell-based; conditions: absolute IC50; read-out: NanoBRET Abs IC50
T1 construct: expressed in transfected cells; host or cells: HEK293
T1 sequence (P35222 1-781): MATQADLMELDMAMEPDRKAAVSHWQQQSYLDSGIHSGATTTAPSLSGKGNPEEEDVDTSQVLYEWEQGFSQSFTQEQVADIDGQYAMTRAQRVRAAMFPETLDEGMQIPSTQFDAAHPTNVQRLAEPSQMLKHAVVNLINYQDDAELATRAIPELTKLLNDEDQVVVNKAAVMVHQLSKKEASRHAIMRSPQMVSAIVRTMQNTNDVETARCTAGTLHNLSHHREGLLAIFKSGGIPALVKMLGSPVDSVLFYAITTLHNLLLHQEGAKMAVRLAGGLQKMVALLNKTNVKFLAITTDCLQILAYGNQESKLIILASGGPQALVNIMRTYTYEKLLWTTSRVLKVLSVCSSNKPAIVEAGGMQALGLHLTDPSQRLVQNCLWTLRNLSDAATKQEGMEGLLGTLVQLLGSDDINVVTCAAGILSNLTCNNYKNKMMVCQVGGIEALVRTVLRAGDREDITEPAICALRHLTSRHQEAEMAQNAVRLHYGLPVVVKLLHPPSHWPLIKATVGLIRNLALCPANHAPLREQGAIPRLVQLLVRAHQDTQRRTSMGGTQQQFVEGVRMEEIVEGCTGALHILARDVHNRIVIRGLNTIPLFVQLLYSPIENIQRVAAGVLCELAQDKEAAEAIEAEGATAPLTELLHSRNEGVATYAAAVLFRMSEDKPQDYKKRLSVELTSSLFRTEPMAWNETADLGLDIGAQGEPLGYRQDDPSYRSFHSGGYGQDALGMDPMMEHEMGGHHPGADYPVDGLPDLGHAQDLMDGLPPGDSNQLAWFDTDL

[2] = molecular target: T2, full-length beta-Catenin (Uniprot ID P35222) (Homo sapiens, UniProt P35222); test: Fluorescence polarization IC50 (beta-catenin / 5FAM-TCF4 10-53 competition); assay type: binding; conditions: fluorescence polarization; read-out: beta-Catenin FP IC50
T2 construct: 10 nM full-length beta-Catenin (Uniprot ID P35222)
T2 sequence (P35222 1-781): T1 sequence (P35222 1-781)

[3] = tested on: TCF/LEF luciferase Reporter in DLD1 cells; test: TCF reporter assay (DLD1 TCF/LEF luciferase reporter, Bright-Glo); assay type: cell-based; conditions: absolute IC50
Text: Those skilled in the art will appreciate that other suitable reagents may be utilized and various parameters may be adjusted.
DLD1 reporter cell line was generated by using TCF/LEF luciferase Reporter Lentivirus (BPS Bioscience Catalog #79787). Parental DLD1 cells (ATCC@ CCL-221) were transfected with the lentivirus and followed by 3-day puromycin selection. Single clone was selected for Reporter assay.
On Day 1, cultured cells in flasks that are no more than about 60-70% confluent were washed with PBS and typsinized in 3 mL/T75 until cells were free floating. Spin down cells for 5 minutes at 1100RPM. While cells spin, determine the number of plates (3 compounds per plate) needed. After spinning, aspirate the supernatant gently and add 10 mL media (RPMI+4% FBS), and re-suspend and mix the cells gently. Count the cells twice in the cell counter Countess and take average of both the counts, and determine how many cells are needed. After plating cells at 5000 cells/well, seal with aerseal film. 90 uL cells/well. Incubate at 37° C. overnight, tap gently to mix and don't stack plates.
On Day 2, compounds were added. Stock solution was 10 mM. Make the DMSO containing media by adding 36 uL DMSO to 10 mL of media. Make the dilution wells by transferring 100 uL DMSO+Media into rows B-F of a protein LoBind 96-well plate. Row G is empty. Add any extra DMSO+media to row H. Transfer 4 uL of stock solution to Row A. One compound per column. Add 196 uL media to Row A, no DMSO in the media. Concentration of Row A was 200 uM. Mix well and do a 6 pt, 1:2 serial dilution, mix ×10 per transfer and change tips before each transfer. Removed excess volume from final well (row F) and discard. Transfer 10 uL of the compound containing media to cells with a multichannel according to plate maps. Add 60 uL DMSO containing media to the DMSO wells. The edge wells were typically not used in the assay and could be ignored if needed or replaced with PBS, but there typically were liquids in the wells. Cover plates with breathable plate sealer and incubate overnight.
A 96-well plate may be utilized to prepare dilution series for up to 12 compounds, each with several concentrations (e.g., 200, 100, 50, 25, 12.5, 6.25 and 0 uM; can be utilized as 100× depending on final test concentrations).
0 uM is the DMSO control for the whole plate. Edge well filled with 90 uL cells+10 uL DMSO containing media.
On Day 3, luciferase levels were assessed using Bright-Glo (Promega). Equilibrate Bright-Glo to room temperature before addition. 7 mL of mixed Bright-Gbo per plate. Unused Bright-Glo could be store at −80° C. Reconstituted reagent can be stored for up to 1 month at −80° C., or after one freeze-thaw. When ready to read, remove plates from incubator and let sit at room temperature for 15 minutes. Typically stagger taking out plates if reading multiple plates before adding the Bright-Glo. Add 90 uL/well Bright-Glo and shake gently for 3 minutes. Read luminescence on GloMax immediately using ‘BrightGlo’ programs.
Cellular activity was assessed using CTG. Equilibrate CTG reagents to room temperature. Equilibrate plates to room temp, e.g. 15 min. Use same time length for all plates. Add CTG reagent, 25 uL if using undiluted, or 90 uL if diluted 1 to 4. Shake for 2 min to induce cell lysis. Allow plate to incubate at RT for 10 min to stabilize lumine sent signal. Read luminesence using program ‘CellTiter-Glo’. Use Prism to find the Absolute IC50 (AbsIC50=X[50]) of each compound.

[4] = read-out: DLD1 4% Abs IC50, DLD1 reporter, 4%
[5] = read-out: DLD1 4% Abs IC50, DLD1 reporter assay, 4%

Row | Compound | IC50 [1] [µM] | IC50 [2] [µM] | IC50 ([3]; read-out: DLD1 reporter assay Abs IC50) [µM] | IC50 [3, 4] [µM] | IC50 [3, 5] [µM]
1 | CC(=O)N1CCC[C@]12CC=CCCCC1(CCCC=CCCCOC(=O)N3CC[C@@](C(=O)N[C@@H](Cc4ccccc4Cl)C(=O)N[C@@H](Cc4csc5ccccc45)C(=O)N[C@H](CO)CC(C)C)(C3)NC(=O)[C@H]([C@@H](C)O)NC(=O)[C@H](Cc3ccccc3)NC(=O)[C@H](C)NC(=O)[C@H](C)NC(=O)[C@H](CC(=O)O)NC(=O)[C@H](CC(=O)O)NC1=O)NC(=O)[C@H](CC(C)(C)C)NC(=O)[C@H](CC(=O)O)NC2=O (stereo partly drawn) [I-1247, Ac-PL3-Asp-Npg-B5-Asp-Asp-Ala-Ala-Phe-Thr-PyrS2-2C1F-BztA-Leuo1] | > 20 | 0.033 | > 20 |  | 
2 | CC(=O)N1CCC[C@]12CC=CCCCC1(CCCC=CCCCOC(=O)N3CC[C@@](C(=O)N[C@@H](Cc4ccsc4)C(=O)N[C@@H](Cc4csc5ccccc45)C(=O)N[C@H](CO)[C@@H](C)O)(C3)NC(=O)[C@H](CC(C)C)NC(=O)[C@H](Cc3ccccc3)NC(=O)[C@H](C)NC(=O)[C@H](C)NC(=O)[C@H](CC(=O)O)NC(=O)[C@H](CC(=O)O)NC1=O)NC(=O)[C@H](CC(C)(C)C)NC(=O)[C@H](CC(=O)O)NC2=O (stereo partly drawn) [I-1302, Ac-PL3-Asp-Npg-B5-Asp-Asp-Ala-Ala-Phe-Leu-PyrS2-3Thi-BztA-Thro1] | 21.4 | 0.045 |  | 4 | 
3 | CC(=O)N1CCC[C@]12CC=CCCCC1(CCCC=CCCCOC(=O)N3CC[C@@](C(=O)N[C@@H](Cc4ccccc4C(F)(F)F)C(=O)N[C@@H](Cc4csc5ccccc45)C(=O)N[C@@H](CCC(N)=O)C(N)=O)(C3)NC(=O)[C@H](CC(C)C)NC(=O)[C@H](Cc3ccccc3)NC(=O)[C@H](C)NC(=O)[C@H](C)NC(=O)[C@H](CC(=O)O)NC(=O)[C@H](CC(=O)O)NC1=O)NC(=O)[C@H](CC(C)(C)C)NC(=O)[C@H](CC(=O)O)NC2=O (stereo partly drawn) [I-1318, Ac-PL3-Asp-Npg-B5-Asp-Asp-Ala-Ala-Phe-Leu-PyrS2-2F3MeF-BztA-Gln-NH2] | 4.8 | 0.014 |  | 3.9 | 
4 | CC(=O)N1CCC[C@]12CC=CCCCC1(CCCC=CCCCOC(=O)N3CC[C@@](C(=O)N[C@@H](Cc4ccsc4)C(=O)N[C@@H](Cc4csc5ccccc45)C(=O)N[C@@H](CCC(N)=O)C(N)=O)(C3)NC(=O)[C@H](CC(C)C)NC(=O)[C@H](Cc3ccccc3)NC(=O)[C@H](C)NC(=O)[C@H](C)NC(=O)[C@H](CN(CC(=O)O)CC(F)(F)F)NC(=O)[C@H](CC(=O)O)NC1=O)NC(=O)[C@H](CC(C)(C)C)NC(=O)[C@H](CC(=O)O)NC2=O (stereo partly drawn) [I-1461, Ac-PL3-Asp-Npg-B5-Asp-TfeGA-Ala-Ala-Phe-Leu-PyrS2-3Thi-BztA-Gln-NH2] | 3.7 | 0.01 |  | 1.7 | 
5 | CC(=O)N1CCC[C@]12CC=CCCCC1(CCCC=CCCCOC(=O)N3CC[C@@](C(=O)N[C@@H](Cc4ccccc4C(F)(F)F)C(=O)N[C@@H](Cc4csc5ccccc45)C(=O)N[C@@H](CC(=O)N4CCN(C)CC4)C(N)=O)(C3)NC(=O)[C@H](CC(C)C)NC(=O)[C@H](Cc3ccccc3)NC(=O)[C@H](C)NC(=O)[C@H](C)NC(=O)[C@H](Cc3cccc(C(=O)O)c3)NC(=O)[C@H](CC(=O)O)NC1=O)NC(=O)[C@H](CC(C)(C)C)NC(=O)[C@H](CC(=O)O)NC2=O (stereo partly drawn) [I-1612, Ac-PL3-Asp-Npg-B5-Asp-3COOHF-Ala-Ala-Phe-Leu-PyrS2-2F3MeF-BztA-MePpzAsn-NH2] | 5.3 | 0.01 |  |  | 4
6 | CC(=O)N1CCC[C@]12CC=CCCCC1(CCCC=CCCCOC(=O)N3CC[C@@](C(=O)N[C@@H](Cc4ccccc4C(F)(F)F)C(=O)N[C@@H](Cc4csc5ccccc45)C(=O)N[C@@H](CCCCNC(C)C)C(N)=O)(C3)NC(=O)[C@H](CC(C)C)NC(=O)[C@H](Cc3ccccc3)NC(=O)[C@H](C)NC(=O)[C@H](C)NC(=O)[C@H](Cc3cccc(C(=O)O)c3)NC(=O)[C@H](CC(=O)O)NC1=O)NC(=O)[C@H](CC(C)(C)C)NC(=O)[C@H](CC(=O)O)NC2=O (stereo partly drawn) [I-1616, Ac-PL3-Asp-Npg-B5-Asp-3COOHF-Ala-Ala-Phe-Leu-PyrS2-2F3MeF-BztA-iPrLys-NH2] | 4.5 | 0.013 |  |  | 2.8
